Data on 16 molecules can be found in US10058534B2, “Benzothiophene derivatives and compositions thereof as selective estrogen receptor degraders” (NOVARTIS AG, priority 2013, dated 2018).

The target in test [1] is ER (endogenous, MCF7 cells) (Homo sapiens (Human), UniProt P03372). In words: ER transcription assay (MCF7 cells), ERE-luciferase reporter. The format is cell-based. The procedure, abridged:
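MCF7 cells (endogenous ER) transiently transfected with ERE-firefly luciferase reporter, plated in DMEM/F12 with 10% charcoal-stripped serum, then treated with compounds 24 h (0.1% DMSO final). Firefly and Renilla luciferase read; IC50 is inflection point of transcription inhibition.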
A general note: A reporter such as luciferase makes a cellular process visible.

In a further test the target is ERα (Homo sapiens (Human), UniProt P03372). In words: ERα degradation (MCF7 cells), in-cell Western. The format is cell-based. Particulars: for IC50: inflection point of the degradation in response to ligand concentration; for IC50 / % ERα remaining: MCF7 cells; for % ERα remaining: remaining ERα protein at 10 μM ligand, relative to DMSO control; for ER Percentage remaining: degradation potential, comparison of linker length between phenyl and -C(O)OH. As for the experimental part: ERα Degradation (MCF7 Cells)
The column titled MCF7 IC50 reports the inflection point of the inhibition of transcription in MCF7 cells as described above. Percentage ERα remaining reports the remaining ERα protein measured at 10 μM concentration of the ligand as described above. The column ERα IC50 reports the inflection point of the degradation in response to the ligand concentration.

The mark [2] stands for this setting: inflection point of the inhibition of transcription in MCF7 cells, 0.1 nM estradiol, 24 hours, read-out: MCF7 IC50.
[3] abbreviates: antagonist activity, comparison of linker length between phenyl and -C(O)OH, read-out: SERD IC50 MCF7.

Read-outs that look alike come from different tables or passages of the source.

ER (endogenous, MCF7 cells), sequence (P03372 whole entry): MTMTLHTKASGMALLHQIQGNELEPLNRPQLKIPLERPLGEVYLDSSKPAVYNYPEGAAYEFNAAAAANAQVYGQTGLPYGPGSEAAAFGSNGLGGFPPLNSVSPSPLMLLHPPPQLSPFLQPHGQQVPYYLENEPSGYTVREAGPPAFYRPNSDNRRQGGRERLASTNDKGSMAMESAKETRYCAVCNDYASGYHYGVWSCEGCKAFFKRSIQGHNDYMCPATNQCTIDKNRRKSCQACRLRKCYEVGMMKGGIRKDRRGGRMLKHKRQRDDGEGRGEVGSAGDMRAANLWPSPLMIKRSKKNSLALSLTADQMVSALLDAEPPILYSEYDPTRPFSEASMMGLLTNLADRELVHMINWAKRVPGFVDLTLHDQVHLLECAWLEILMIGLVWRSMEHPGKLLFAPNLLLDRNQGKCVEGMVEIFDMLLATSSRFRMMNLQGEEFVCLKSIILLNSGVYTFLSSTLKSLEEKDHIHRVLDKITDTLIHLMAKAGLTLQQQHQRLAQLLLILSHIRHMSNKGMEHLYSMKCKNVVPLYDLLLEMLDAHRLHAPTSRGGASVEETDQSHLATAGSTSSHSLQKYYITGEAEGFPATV
ERα, sequence (P03372 whole entry): as above

In general, IC50 refers to the point on the concentration scale where inhibition reaches its midpoint. For `CC(F)(F)c1ccccc1-c1sc2cc(O)ccc2c1Oc1ccc(/C=C/C(=O)O)cc1` [Example 122, (E)-3-(4-((2-(2-(1,1-difluoroethyl)phenyl)-6-hydroxybenzo[b]thiophen-3-yl)oxy)phenyl)acrylic acid], the IC50 in test [1] (setting [2]) was determined as 11 nM. At ERα, the IC50 was found to be 0.2 nM and the “% ERα remaining” value is reported as 15%.

For `O=C(O)/C=C/c1ccc(Oc2c(-c3ccccc3C3COC3)sc3cc(O)ccc23)cc1` [Example 123, (E)-3-(4-((6-hydroxy-2-(2-(oxetan-3-yl)phenyl)benzo[b]thiophen-3-yl)oxy)phenyl)acrylic acid], in test [1] (setting [2]), the IC50 came to 83 nM. Moreover, on ERα, inhibition was half-maximal at 1.1 nM (IC50) and the “% ERα remaining” value worked out at 15%.

Regarding `Cc1cccc(C(C)C)c1-c1sc2cc(O)ccc2c1Oc1ccc(/C=C/C(=O)O)cc1` [Example 124, (E)-3-(4-((6-hydroxy-2-(2-isopropyl-6-methylphenyl)benzo[b]thiophen-3-yl)oxy)phenyl)acrylic acid], the IC50 in test [1] (setting [2]) turned out to be 114 nM. In addition, on ERα, 1.4 nM corresponded to half-maximal inhibition (IC50) and the “% ERα remaining” value was 10%.

With `CN(C)c1ccccc1-c1sc2cc(O)ccc2c1Oc1ccc(/C=C/C(=O)O)cc1` [Example 125, (E)-3-(4-((2-(2-(dimethylamino)phenyl)-6-hydroxybenzo[b]thiophen-3-yl)oxy)phenyl)acrylic acid], the IC50 in test [1] (setting [2]) came out at 124 nM. Also, on ERα, the “% ERα remaining” value is recorded as 11%.

With `O=C(O)/C=C/c1ccc(Oc2c(-c3ccccc3C3CC3)sc3cc(O)ccc23)cc1` [Example 127, (E)-3-(4-((2-(2-cyclopropylphenyl)-6-hydroxybenzo[b]thiophen-3-yl)oxy)phenyl)acrylic acid], the IC50 amounted to 208 nM in test [1] (setting [2]) and 4.2 nM on ERα. In addition, at ERα, the “% ERα remaining” value was 16%.

As for `COc1ccc(-c2sc3cc(O)ccc3c2Oc2ccc(/C=C/C(=O)O)cc2)c(C)n1` [Example 129, (E)-3-(4-((6-hydroxy-2-(6-methoxy-2-methylpyridin-3-yl)benzo[b]thiophen-3-yl)oxy)phenyl)acrylic acid], the IC50 in test [1] (setting [2]) came to 297 nM. Moreover, the “% ERα remaining” value on ERα was found to be 22%.

On to `Cc1occc1-c1sc2cc(O)ccc2c1Oc1ccc(/C=C/C(=O)O)cc1` [Example 131, (E)-3-(4-((6-hydroxy-2-(2-methylfuran-3-yl)benzo[b]thiophen-3-yl)oxy)phenyl)acrylic acid], for which the IC50 in test [1] (setting [2]) was determined as 815 nM. Besides, the “% ERα remaining” value at ERα is given as 12%.

As to `C#Cc1ccccc1-c1sc2cc(O)ccc2c1Oc1ccc(/C=C/C(=O)O)cc1` [Example 132, (E)-3-(4-((2-(2-ethynylphenyl)-6-hydroxybenzo[b]thiophen-3-yl)oxy)phenyl)acrylic acid], in test [1] (setting [2]), the IC50 was 890 nM. Further, on ERα, the “% ERα remaining” value came out at 16%.

For the molecule `Cn1ccc2c(-c3sc4cc(O)ccc4c3Oc3ccc(/C=C/C(=O)O)cc3)cccc21` [Example 133, (E)-3-(4-((6-hydroxy-2-(1-methyl-1H-indol-4-yl)benzo[b]thiophen-3-yl)oxy)phenyl)acrylic acid], in test [1] (setting [2]), the IC50 came out at 898 nM. For the same molecule, the “% ERα remaining” value on ERα came to 17%.

As for `COc1ccc(-c2sc3cc(O)ccc3c2Oc2ccc(/C=C/C(=O)O)cc2)c(C(C)C)c1` [Example 134, (E)-3-(4-((6-hydroxy-2-(2-isopropyl-4-methoxyphenyl)benzo [b]thiophen-3-yl)oxy)phenyl)acrylic acid], the IC50 in test [1] (setting [2]) is 380 nM. Also, on ERα, the half-inhibitory concentration (IC50) was 403 nM and the “% ERα remaining” value worked out at 12%.

As to `CC(C)c1ccccc1-c1sc2cc(OC(=O)C(C)(C)C)ccc2c1Oc1ccc(/C=C/C(=O)O)cc1` [Example 135, (E)-3-(4-((2-(2-isopropylphenyl)-6-(pivaloyloxy)benzo[b]thiophen-3-yl)oxy)phenyl)acrylic acid], the IC50 in test [1] (setting [2]) amounted to 61 nM. Further, the “% ERα remaining” value on ERα was determined as 19%.

Turning to `CCC(=O)Oc1ccc2c(Oc3ccc(/C=C/C(=O)O)cc3)c(-c3ccccc3C(C)C)sc2c1` [Example 136, (E)-3-(4-((2-(2-isopropylphenyl)-6-(propionyloxy)benzo[b]thiophen-3-yl)oxy)phenyl)acrylic acid], in test [1] (setting [2]), the IC50 came to 5.1 nM. Further, at ERα, the “% ERα remaining” value turned out to be 11%.

Turning to `CCOC(=O)/C=C/c1ccc(Oc2c(-c3ccccc3C(C)C)sc3cc(O)ccc23)cc1` [Example 137, (E)-ethyl 3-(4-((6-hydroxy-2-(2-isopropylphenyl)benzo [b]thiophen-3-yl)oxy)phenyl)acrylate], the IC50 in test [1] (setting [2]) was determined as 9 nM. For the same molecule, the “% ERα remaining” value on ERα is on record as 15%.

`CC(C)c1ccccc1-c1sc2cc(O)ccc2c1Oc1ccc(/C=C/C(=O)OCCN2CCOCC2)cc1` [Example 138, (E)-2-morpholinoethyl 3-(4-((6-hydroxy-2-(2-isopropylphenyl)benzo [b]thiophen-3-yl)oxy)phenyl)acrylate]: the IC50 in test [1] (setting [2]) came to 5.8 nM. The “% ERα remaining” value on ERα turned out to be 24%.

For the molecule `O=C(O)c1ccc(Oc2c(-c3ccc(O)cc3)sc3cc(O)ccc23)cc1` [reference compound], the IC50 in test [1] (setting [3]) was 10000 nM. Moreover, the “ER Percentage remaining” value on ERα is on record as 57 Percentage.

As to `O=C(O)CCCc1ccc(Oc2c(-c3ccc(O)cc3)sc3cc(O)ccc23)cc1` [reference compound], the IC50 in test [1] (setting [3]) came out at 10000 nM. Moreover, the “ER Percentage remaining” value at ERα amounted to 55 Percentage.
